Assays:
Format in all cases: biochemical
HsDHFR (human DHFR) [1] = biological target: T1, HsDHFR (human DHFR) (Homo sapiens, UniProt P00374); assay: DHFR inhibition assay
T1 sequence (P00374 1-187): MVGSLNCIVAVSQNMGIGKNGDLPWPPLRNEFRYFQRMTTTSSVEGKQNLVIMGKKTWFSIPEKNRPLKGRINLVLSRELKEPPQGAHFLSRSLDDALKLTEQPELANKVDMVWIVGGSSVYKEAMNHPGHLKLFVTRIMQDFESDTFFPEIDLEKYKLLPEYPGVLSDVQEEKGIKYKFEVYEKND

[2] = biological target: T2, TbDHFR (T. brucei dihydrofolate reductase) (Trypanosoma brucei, UniProt Q27783); assay: DHFR inhibition assay
T2 sequence (Q27783 whole entry): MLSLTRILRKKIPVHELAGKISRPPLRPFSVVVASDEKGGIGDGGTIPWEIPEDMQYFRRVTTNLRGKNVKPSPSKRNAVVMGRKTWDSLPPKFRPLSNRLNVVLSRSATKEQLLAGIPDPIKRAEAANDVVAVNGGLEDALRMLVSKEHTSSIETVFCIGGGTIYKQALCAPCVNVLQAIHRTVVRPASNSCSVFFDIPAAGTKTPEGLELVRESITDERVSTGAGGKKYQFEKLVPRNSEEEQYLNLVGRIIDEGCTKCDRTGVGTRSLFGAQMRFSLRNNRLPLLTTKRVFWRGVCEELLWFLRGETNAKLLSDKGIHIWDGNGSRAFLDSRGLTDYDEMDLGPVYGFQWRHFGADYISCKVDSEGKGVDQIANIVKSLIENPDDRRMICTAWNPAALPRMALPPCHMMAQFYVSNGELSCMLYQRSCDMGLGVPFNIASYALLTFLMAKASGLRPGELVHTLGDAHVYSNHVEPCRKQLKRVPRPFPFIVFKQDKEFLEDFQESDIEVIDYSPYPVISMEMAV

[3] = biological target: T3, TbPTR1 (T. brucei pteridine reductase 1) (Trypanosoma brucei, UniProt O76290); assay: HPLC-based PTR1 assay
T3 sequence (O76290 1-268): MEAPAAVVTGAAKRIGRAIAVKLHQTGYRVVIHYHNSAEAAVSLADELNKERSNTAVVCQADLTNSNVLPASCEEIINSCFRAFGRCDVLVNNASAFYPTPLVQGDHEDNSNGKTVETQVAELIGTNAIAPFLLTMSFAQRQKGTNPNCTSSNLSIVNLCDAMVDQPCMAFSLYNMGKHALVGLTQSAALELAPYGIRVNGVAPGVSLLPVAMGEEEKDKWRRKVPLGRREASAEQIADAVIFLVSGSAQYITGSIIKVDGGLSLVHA

[4] = biological target: T4, endogenous PTR1 in clarified T. brucei lysate (Trypanosoma brucei, UniProt O76290); assay: HPLC-based PTR1 assay
T4 sequence (O76290 1-268): T3 sequence (O76290 1-268)

HsDHFR (human DHFR) [5] = biological target: T1, HsDHFR (human DHFR); assay: DHFR inhibition assay; details: unreliable: sample contaminated with ~25% of compound 33
[6] = biological target: T2, TbDHFR (T. brucei dihydrofolate reductase); assay: DHFR inhibition assay; details: unreliable: sample contaminated with ~25% of compound 33

IC50 (HsDHFR (human DHFR) [1]) | IC50 [2] | IC50 [3] | IC50 [4] | HsDHFR IC50 (HsDHFR (human DHFR) [5]) | TbDHFR IC50 [6] | SMILES
> 50 µM | > 30 µM | – | – | – | – | Nc1nc2cccc(Cl)c2n1Cc1ccc(Cl)c(Cl)c1 [compound 29]
> 50 µM | > 50 µM | 0.00099 ± 0.00013 µM | 0.00088 ± 0.00013 µM | – | – | Nc1nc2cccc(-c3ccccc3)c2n1Cc1ccc(Cl)c(Cl)c1 [compound 32]
– | – | – | – | > 50 µM | > 30 µM | COc1cccc2c1nc(N)n2Cc1ccc(Cl)c(Cl)c1 [compound 28]
> 50 µM | > 30 µM | – | – | – | – | CCCOc1cccc2nc(N)n(Cc3ccc(Cl)c(Cl)c3)c12 [compound 30]
> 30 µM | > 30 µM | – | – | – | – | Cc1cc2nc(N)n(Cc3ccc(Cl)c(Cl)c3)c2cc1C [compound 34]
> 50 µM | > 50 µM | – | – | – | – | Nc1nc2cccc(OCc3ccccc3)c2n1Cc1ccc(Cl)c(Cl)c1 [compound 31]
> 50 µM | > 30 µM | – | – | – | – | COc1cccc2nc(N)n(Cc3ccc(Cl)c(Cl)c3)c12 [compound 33]

Continued, compound first:

SMILES | IC50 (HsDHFR (human DHFR) [1]) | IC50 [2] | IC50 [3] | IC50 [4] | HsDHFR IC50 (HsDHFR (human DHFR) [5]) | TbDHFR IC50 [6]
Nc1nc2c(OCc3ccccc3)cccc2n1Cc1ccc(Cl)c(Cl)c1 [compound 26] | > 50 µM | > 50 µM | – | – | – | –
Nc1nc2c(Cl)cccc2n1Cc1ccc(Cl)c(Cl)c1 [compound 24] | > 50 µM | > 30 µM | – | – | – | –
Nc1nc2c(-c3ccccc3)cccc2n1Cc1ccc(Cl)c(Cl)c1 [compound 27] | > 30 µM | > 30 µM | – | – | – | –
Nc1nc2ccccc2n1Cc1ccc(Cl)c(Cl)c1 [compound 11] | > 50 µM | > 50 µM | – | – | – | –
CCCOc1cccc2c1nc(N)n2Cc1ccc(Cl)c(Cl)c1 [compound 25] | > 50 µM | > 30 µM | – | – | – | –

— article PMC3047710 (Chemmedchem, 2010)
